Data: patent publication US7491793B2 (priority 2003, dated 2009)

System: Lassa virus (Josiah strain)
Assay type: cell-based

| Sequence | inhibition of plaque formation by LasV |
| --- | --- |
| GWTFWTLSDSEGKDTPGGY [SEQ ID NO:31] | inhibited infection by LasV, but to a lesser extent |
| NYSKYWYLNHTTTGR [SEQ ID NO:30] | can inhibit plaque formation by LasV |
